This note sets out measurements from EPA's ToxValDB 9.5 (doi:10.2903/j.efsa.2007.117r).

≈ marks a conversion by molar mass, not a printed value.

One data set has as its system Aphidius rhopalosiphi. As to conditions: chronic/long-term; mortality.
The subject of a further data set is Apis mellifera. As to conditions: acute; duration: 48 hours; oral; unspecified; mortality.
A further data set has as its system Bibionidae. The following applies: chronic/long-term; duration: 24 days; reproduction.
The test system of a further data set is Bird. As to conditions: for LD50: oral, mortality.
The subject of the next data set is Canidae. As to conditions: subchronic; duration: 90 days; oral; Dog Other.
A further data set deals with Daphnia magna. The following applies: chronic/long-term; duration: 21 days; reproduction.
For the next data set, the system named is Oryctolagus sp. The following applies: reproduction developmental; reproduction.
In another data set the test system is Tagia sp. The following applies: acute; duration: 14 days; mortality.

Broadly, the NOAEL is the highest tested level that showed no adverse finding. In turn, `NC1=C(Cl)C(=O)c2ccccc2C1=O` [2-Amino-3-chloro-1,4-naphthoquinone] returned an LEL in the data set on Aphidius rhopalosiphi of 3810 g/ha. For the same compound, the LD50 in the data set on Apis mellifera is more than 28 µg/piece; in the data set with Bird (acute, unspecified) it was more than 2000 mg/kg-day; with Bird (short-term, feed) it was 394 mg/kg-day; with Rattus norvegicus (acute, oral, mortality) it was 500 mg/kg-day. Moreover, the NOEC in the data set with Bibionidae is 0.063 mg/L; in the data set on Daphnia magna, 0.0021 mg/L; with Oncorhynchus mykiss (chronic/long-term, duration: 21 days, behavior), 0.02 mg/L. Besides, the NOAEL turned out to be 36.2 mg/kg-day in the data set with Bird (chronic/long-term); 3 mg/kg-day in the data set on Canidae; 17.5 mg/kg-day in the data set on Oryctolagus sp.; 0.21 mg/kg-day in the data set on Rattus norvegicus (chronic, duration: 2 years, organ weight); 5 mg/kg-day with Rattus norvegicus (reproduction developmental, body weight). The LC50 with Oncorhynchus mykiss (acute, duration: 96 hours, mortality) turned out to be 0.063 µg/mL (≈ 0.303 µM); in the data set with Tagia sp. it was 125 mg/kg.
